Results on one molecule are retold here after patent publication US5889029A, “Use of cotinine in treating psychiatric disorders” (priority 1997, dated 1999).

Series [1] concerns Serotonin (5HT1). Briefly: Serotonin (5HT1) Binding Assay. The conditions noted are these: Rat cortical membranes, [3H]Hydroxytryptamine binoxalate 3.0 nM.
For series [2] the following is noted: in vivo, cited from earlier work.
In series [3] the target is T1, Inositol Triphosphate (IP3) (Rattus norvegicus, UniProt P29994).
T1 construct: Rat cerebellar membranes; from tissue; host or cells: rat cerebellar membranes
T1 sequence (P29994 whole entry): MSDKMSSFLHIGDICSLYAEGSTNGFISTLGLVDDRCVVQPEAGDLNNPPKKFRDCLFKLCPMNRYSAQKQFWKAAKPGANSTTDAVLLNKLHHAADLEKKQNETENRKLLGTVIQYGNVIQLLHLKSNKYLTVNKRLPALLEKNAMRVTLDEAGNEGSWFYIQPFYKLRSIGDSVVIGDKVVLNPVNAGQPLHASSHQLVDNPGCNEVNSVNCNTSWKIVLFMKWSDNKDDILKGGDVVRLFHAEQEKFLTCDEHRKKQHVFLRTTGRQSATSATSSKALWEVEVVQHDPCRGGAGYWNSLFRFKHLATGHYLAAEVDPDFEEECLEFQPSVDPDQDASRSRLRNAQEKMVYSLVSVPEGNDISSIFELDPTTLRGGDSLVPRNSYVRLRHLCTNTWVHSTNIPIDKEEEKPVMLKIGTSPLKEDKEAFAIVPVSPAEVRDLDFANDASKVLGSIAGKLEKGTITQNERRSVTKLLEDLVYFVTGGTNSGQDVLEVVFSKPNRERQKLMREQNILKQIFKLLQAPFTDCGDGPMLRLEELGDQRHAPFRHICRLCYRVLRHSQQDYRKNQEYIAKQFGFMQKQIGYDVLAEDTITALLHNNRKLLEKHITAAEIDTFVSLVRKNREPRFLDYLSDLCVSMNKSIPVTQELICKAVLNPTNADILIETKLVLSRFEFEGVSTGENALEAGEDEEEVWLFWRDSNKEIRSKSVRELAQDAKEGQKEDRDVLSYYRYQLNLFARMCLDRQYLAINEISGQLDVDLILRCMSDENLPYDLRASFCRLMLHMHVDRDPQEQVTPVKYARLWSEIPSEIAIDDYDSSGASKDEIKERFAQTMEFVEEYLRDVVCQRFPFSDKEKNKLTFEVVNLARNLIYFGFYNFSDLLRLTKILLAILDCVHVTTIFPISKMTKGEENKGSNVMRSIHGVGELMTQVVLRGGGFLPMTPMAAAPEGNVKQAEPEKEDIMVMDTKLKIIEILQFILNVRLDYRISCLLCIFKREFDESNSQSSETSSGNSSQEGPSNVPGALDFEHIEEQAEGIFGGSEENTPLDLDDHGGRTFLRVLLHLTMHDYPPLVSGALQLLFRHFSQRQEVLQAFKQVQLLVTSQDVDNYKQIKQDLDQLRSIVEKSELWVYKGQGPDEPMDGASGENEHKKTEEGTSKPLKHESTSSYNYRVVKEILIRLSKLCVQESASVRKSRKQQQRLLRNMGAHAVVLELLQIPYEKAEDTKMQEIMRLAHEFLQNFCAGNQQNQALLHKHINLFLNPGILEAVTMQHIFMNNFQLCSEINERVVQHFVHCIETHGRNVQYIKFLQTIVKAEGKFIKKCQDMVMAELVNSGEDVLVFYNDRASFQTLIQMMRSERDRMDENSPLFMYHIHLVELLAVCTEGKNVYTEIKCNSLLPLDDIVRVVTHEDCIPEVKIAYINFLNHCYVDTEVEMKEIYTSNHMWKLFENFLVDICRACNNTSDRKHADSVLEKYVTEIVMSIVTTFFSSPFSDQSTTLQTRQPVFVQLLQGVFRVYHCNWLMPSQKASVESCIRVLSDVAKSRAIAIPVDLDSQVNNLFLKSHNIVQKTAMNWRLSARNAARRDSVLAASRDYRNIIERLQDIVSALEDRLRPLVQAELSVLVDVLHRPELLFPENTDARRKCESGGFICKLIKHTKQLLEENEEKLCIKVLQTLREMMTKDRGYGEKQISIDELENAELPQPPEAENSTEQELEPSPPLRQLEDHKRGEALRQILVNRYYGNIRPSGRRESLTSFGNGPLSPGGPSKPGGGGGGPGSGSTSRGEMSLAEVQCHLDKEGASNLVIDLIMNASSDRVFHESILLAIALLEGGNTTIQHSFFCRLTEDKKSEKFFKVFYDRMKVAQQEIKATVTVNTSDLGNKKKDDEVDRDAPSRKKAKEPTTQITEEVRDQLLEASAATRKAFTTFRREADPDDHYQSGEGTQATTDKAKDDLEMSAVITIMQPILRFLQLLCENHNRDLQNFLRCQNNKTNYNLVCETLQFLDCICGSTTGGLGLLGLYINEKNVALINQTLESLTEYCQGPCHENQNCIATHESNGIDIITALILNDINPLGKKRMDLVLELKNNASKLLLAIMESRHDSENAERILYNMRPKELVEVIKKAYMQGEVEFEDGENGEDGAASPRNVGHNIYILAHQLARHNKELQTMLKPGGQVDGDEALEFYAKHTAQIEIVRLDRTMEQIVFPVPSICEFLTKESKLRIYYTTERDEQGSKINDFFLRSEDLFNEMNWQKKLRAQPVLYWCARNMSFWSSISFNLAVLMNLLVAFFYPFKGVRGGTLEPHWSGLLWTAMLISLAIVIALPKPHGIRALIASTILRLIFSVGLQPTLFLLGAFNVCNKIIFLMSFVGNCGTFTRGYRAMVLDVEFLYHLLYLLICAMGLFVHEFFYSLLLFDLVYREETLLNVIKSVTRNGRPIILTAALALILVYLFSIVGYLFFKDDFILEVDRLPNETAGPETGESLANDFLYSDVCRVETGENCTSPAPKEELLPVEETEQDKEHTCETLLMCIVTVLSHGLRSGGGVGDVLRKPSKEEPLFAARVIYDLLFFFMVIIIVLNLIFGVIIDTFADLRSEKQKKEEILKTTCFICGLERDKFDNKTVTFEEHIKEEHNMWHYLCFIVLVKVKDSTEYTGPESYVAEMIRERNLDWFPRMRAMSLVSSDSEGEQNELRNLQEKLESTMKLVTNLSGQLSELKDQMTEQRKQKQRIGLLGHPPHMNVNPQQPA
The series is described as follows: Inositol Triphosphate (IP3) Binding Assay. The conditions noted are these: Rat cerebellar membranes, [3H]IP3 4.0 nM, read-out: Receptor Binding Activity Percent Inhibition Average (N = 2). On the procedure: Tissue cultures were prepared using standard laboratory practice for the following tissues: human recombinant M1 clone, human recombinant M2 clone, guinea pig striatal membranes, rat cortical membranes, rat striatal membranes, rat forebrain membranes, bovine hippocampal membranes, guinea pig cerebellar membranes, rat kidney membranes, recombinant rat 5HT7 clone, and rat cerebellar membranes.
Inositol Triphosphate (IP3) Binding Assay
Rat cerebellar membranes
Radioligand: [^3 H]IP3 (10-30 Ci/mmol)
Final ligand concentration - [4.0 nM]
D-myo-inositol 1,4,5-triphosphate
Reactions are carried out in 50 mM TRIS-HCl (pH 8.3)
1 mM EDTA at 0° C. for 10 minutes. The reaction is
rapid vacuum filtration onto glass fiber filters.
onto the filters is determined and compared to control
order to ascertain any interactions of test compound with
inositol triphospate binding site.

The test system of series [4] is Glutamic Acid Decarboxylase (GAD). Briefly: Glutamic Acid Decarboxylase (GAD) Enzyme Assay. The conditions noted are these: 10^-8 M; Rat corpus striatal membranes; [14C]L-Glutamic acid. The format is biochemical. On the procedure: Radioimmunoassay studies were conducted with rat corpus striatal membranes using the following method.
Glutamic Acid Decarboxylase (GAD) Enzyme Assay
Rat corpus striatal membranes
Substrate: [^14 C]L-Glutamic acid (30-80 Ci/mmol)
Reactions are incubated in phosphate/mercapoethanol buffer
6.9) for 30 minutes at 37° C. The reaction is
stopped by the addition
of trichloroacetic acid and placement on ice. Radioactive
trapped in phenylethylamine/methanol and quantitated using
scintillation […] in order to ascertain any
of test compounds with the glutamic acid decarboxylase

The target in series [5] is T2, Serotonin (5HT1A) (Bos taurus, UniProt F6Q2H9).
T2 construct: Bovine hippocampal membranes; from tissue; host or cells: bovine hippocampal membranes
T2 sequence (F6Q2H9 1-422): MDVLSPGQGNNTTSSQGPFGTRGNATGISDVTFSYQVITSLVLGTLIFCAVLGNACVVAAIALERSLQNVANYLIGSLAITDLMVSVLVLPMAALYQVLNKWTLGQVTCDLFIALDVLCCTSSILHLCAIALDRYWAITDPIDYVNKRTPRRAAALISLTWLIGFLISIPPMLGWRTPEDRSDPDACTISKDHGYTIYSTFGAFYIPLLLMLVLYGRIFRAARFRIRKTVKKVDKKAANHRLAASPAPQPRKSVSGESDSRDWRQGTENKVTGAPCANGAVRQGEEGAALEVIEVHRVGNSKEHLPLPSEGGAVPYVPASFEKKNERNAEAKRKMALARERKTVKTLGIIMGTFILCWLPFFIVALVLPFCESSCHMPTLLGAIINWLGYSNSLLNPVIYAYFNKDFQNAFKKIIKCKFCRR
The series is described as follows: Serotonin (5HT1A) Binding Assay. Further details: species or system Bovine. The settings on record: Bovine hippocampal membranes, [3H]-8-OH-DPAT 1.0 nM, read-out: Receptor Binding Activity Percent Inhibition Average (N = 2).

Series [6] relates to Serotonin (Non-Selective). Briefly: Serotonin (Non-Selective) Binding Assay. The conditions noted are these: Rat cortical membranes, [3H]Lysergic acid diethylamide 5.0 nM.
Series [7] addresses T3, Histamine (H3) (Rattus norvegicus, UniProt Q9QYN8).
T3 construct: Rat forebrain membranes; from tissue; host or cells: rat forebrain membranes
The series is described as follows: Histamine (H3) Binding Assay. The conditions noted are these: Rat forebrain membranes, [3H]N^a-methylhistamine 0.2 nM, read-out: Receptor Binding Activity Percent Inhibition Average (N = 2).

Like-named read-outs stand apart in the source and are kept apart here.

T3 sequence (Q9QYN8 whole entry): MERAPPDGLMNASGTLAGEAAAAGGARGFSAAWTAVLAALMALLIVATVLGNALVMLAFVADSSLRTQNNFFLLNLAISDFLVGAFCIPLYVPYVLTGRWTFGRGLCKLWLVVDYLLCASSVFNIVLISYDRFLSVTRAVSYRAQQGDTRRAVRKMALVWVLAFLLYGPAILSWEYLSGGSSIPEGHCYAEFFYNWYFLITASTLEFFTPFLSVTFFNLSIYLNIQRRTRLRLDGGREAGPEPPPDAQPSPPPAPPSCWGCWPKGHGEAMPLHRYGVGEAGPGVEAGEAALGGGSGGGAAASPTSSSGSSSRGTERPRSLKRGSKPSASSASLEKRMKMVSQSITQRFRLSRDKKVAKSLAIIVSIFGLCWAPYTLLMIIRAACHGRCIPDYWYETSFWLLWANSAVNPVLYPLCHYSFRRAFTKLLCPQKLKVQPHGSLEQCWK

Take `CN1C(=O)CCC1c1cccnc1` (single isomer, unassigned) [Cotinine, 1-methyl-5-(3-pyridinyl)-2-pyrrolidionone]: the “Receptor Binding Activity Percent Inhibition Average (N = 2)” value in series [1] (10^-4 M) is listed as -0.8%; in series [1] (10^-6 M), 10.9%; in series [6] (10^-4 M), 12.1%; in series [6] (10^-6 M), 4.6%. Besides, the results for the “passage of the blood-brain barrier” value in series [2] and in series [2] (listed as cotinine) were “pass the blood-brain barrier” and “capable of passing the blood-brain barrier”, respectively. Further, the inhibition (as a rule, the drop in the measured response relative to a control, in per cent) at 100 µM in series [3] (10^-4 M) came to 8.3%; in series [5] (10^-4 M), 1.4%; in series [7] (10^-4 M), 15.7%. For the same molecule, the inhibition at 1 µM in series [3] (10^-6 M) worked out at 4.8%; in series [5] (10^-6 M), 1.1%; in series [7] (10^-6 M), 11.9%. Also, in series [4], the “Percent Inhibition” value is on record as 38%.
